The source of these data is patent US7009052B2, “Sulfonamide derivatives” (Warner Lambert Company LLC, priority 2003, dated 2006).

In the assay the target is T1, androgen receptor (Homo sapiens, UniProt P10275).
T1 sequence (P10275 1-920 Q868H): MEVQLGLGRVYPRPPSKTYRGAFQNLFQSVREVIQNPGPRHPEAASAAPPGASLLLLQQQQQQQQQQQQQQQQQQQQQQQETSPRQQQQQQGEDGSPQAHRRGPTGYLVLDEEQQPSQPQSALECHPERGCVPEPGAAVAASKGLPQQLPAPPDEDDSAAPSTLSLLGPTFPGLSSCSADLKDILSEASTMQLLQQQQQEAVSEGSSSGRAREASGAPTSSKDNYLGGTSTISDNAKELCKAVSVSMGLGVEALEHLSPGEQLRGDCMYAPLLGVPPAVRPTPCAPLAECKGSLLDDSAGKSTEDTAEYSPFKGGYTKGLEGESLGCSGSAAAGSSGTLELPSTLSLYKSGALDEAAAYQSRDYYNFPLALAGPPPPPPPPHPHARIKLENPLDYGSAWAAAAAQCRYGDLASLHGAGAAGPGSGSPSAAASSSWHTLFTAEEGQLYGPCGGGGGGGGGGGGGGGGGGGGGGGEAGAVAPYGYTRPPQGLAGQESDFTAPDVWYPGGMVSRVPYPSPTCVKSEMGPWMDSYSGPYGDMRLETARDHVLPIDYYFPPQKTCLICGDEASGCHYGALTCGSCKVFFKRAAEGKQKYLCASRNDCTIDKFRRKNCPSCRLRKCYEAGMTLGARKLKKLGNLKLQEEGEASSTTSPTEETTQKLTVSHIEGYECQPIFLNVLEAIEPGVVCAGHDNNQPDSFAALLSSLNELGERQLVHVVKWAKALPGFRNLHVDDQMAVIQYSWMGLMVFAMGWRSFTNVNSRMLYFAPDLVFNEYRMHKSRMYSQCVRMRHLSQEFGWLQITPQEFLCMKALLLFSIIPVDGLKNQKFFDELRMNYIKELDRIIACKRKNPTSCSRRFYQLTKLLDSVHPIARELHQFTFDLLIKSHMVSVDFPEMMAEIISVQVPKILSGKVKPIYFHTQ
The experiment in a line: AR Antagonist Cell Assay (MMTV-luciferase reporter, DHT-induced). It counts as cell-based. To be noted: MDA-MB453-MMTV clone 54-19 cells, 100 pM DHT, 17 hr. A digest of the protocol: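 Stably transfected MDA-MB453 cells carrying an ARE-containing MMTV promoter–firefly luciferase reporter, pretreated 30 min with compound at 10 uM or 1 uM in 1% charcoal-treated serum medium. Then stimulated with 100 pM DHT for 17 hr at 37° C. and luminescence read; expressed as % inhibition of DHT-induced signal.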
For orientation: A reporter such as luciferase makes a cellular process visible.

Bounds are passed on as bounds.

With `O=c1cc(C(F)(F)F)c2cc(S(=O)(=O)NCc3ccccc3OC(F)F)ccc2[nH]1` [Example 151, 2-Oxo-4-trifluoromethyl-1,2-dihydroquinoline-6-sulfonic acid2-difluoromethoxybenzylamide], it took 730 nM to reach half-maximal inhibition (IC50). That is a sub-micromolar value.
As to `Cc1ccc(F)c(CNS(=O)(=O)c2ccc3[nH]c(=O)cc(C(F)(F)F)c3c2)c1Cl` [Example 152, 2-Oxo-4-trifluoromethyl-1,2-dihydroquinoline-6-sulfonic acid2-chloro-6-fluoro-3-methylbenzylamide], the half-maximal inhibitory concentration (IC50) is over 10000 nM.
`O=c1cc(C(F)(F)F)c2cc(S(=O)(=O)NCc3ccccc3C(F)(F)F)ccc2[nH]1` [Example 153, 2-Oxo-4-trifluoromethyl-1,2-dihydroquinoline-6-sulfonic acid2-trifluoromethylbenzylamide] showed an IC50 of 750 nM. This counts as sub-micromolar.
On to `O=c1cc(C(F)(F)F)c2cc(S(=O)(=O)NCCSCc3c(F)cccc3Cl)ccc2[nH]1` [Example 154, 2-Oxo-4-trifluoromethyl-1,2-dihydroquinoline-6-sulfonic acid[2-(2-chloro-6-fluorobenzylsulfanyl)ethyl]amide], for which the IC50 worked out at 2180 nM.
In turn, `O=c1cc(C(F)(F)F)c2cc(S(=O)(=O)NCc3ccccc3Sc3ccccc3CO)ccc2[nH]1` [Example 155, 2-Oxo-4-trifluoromethyl-1,2-dihydroquinoline-6-sulfonic acid2-(2-hydroxymethyl-phenylsulfanyl)benzylamide] displayed a half-inhibitory concentration (IC50) of 1940 nM. The IC50 values of the last two compounds are within 1.5-fold of each other.
Take `O=c1cc(C(F)(F)F)c2cc(S(=O)(=O)NCc3ccccc3Br)ccc2[nH]1` [Example 156, 2-Oxo-4-trifluoromethyl-1,2-dihydroquinoline-6-sulfonic acid2-bromobenzylamide]: the IC50 came to 2160 nM. The IC50 values of the last two compounds are within 1.5-fold of each other.
The compound `O=c1cc(C(F)(F)F)c2cc(S(=O)(=O)NCCCO)ccc2[nH]1` [Example 157, 2-Oxo-4-trifluoromethyl-1,2-dihydroquinoline-6-sulfonic acid(3-hydroxypropyl)amide] returned an IC50 of 6730 nM.
In the case of `O=c1cc(C(F)(F)F)c2cc(S(=O)(=O)NCc3cc(C(F)(F)F)ccc3F)ccc2[nH]1` [Example 158, 2-Oxo-4-trifluoromethyl-1,2-dihydroquinoline-6-sulfonic acid2-fluoro-5-trifluoromethylbenzylamide], half-maximal inhibition (IC50) was put at 6610 nM.
The compound `O=c1cc(C(F)(F)F)c2cc(S(=O)(=O)NCC(c3ccccc3)c3ccccc3)ccc2[nH]1` [Example 159, 2-Oxo-4-trifluoromethyl-1,2-dihydroquinoline-6-sulfonic acid(2,2-diphenylethyl)amide] showed an IC50 of 1560 nM.
As to `O=c1cc(C(F)(F)F)c2cc(S(=O)(=O)N[C@H]3CCCC[C@H]3OCc3ccccc3)ccc2[nH]1` [Example 160, 2-Oxo-4-trifluoromethyl-1,2-dihydroquinoline-6-sulfonic acid(2-benzyloxycyclohexyl)amide], the IC50 was over 10000 nM.

What is called IC50 is the concentration that gives 50% inhibition.
